Here are results for 25 molecules from patent US10689367B2, “Triazole pyridyl compounds as agonists of the APJ receptor” (AMGEN INC., priority 2016, dated 2020).

The experiment deals with human APJ receptor (Homo sapiens (Human), UniProt P35414). Kind of experiment: [35S]GTPγS binding assay on membranes from CHO cells stably expressing human APJ receptor. The class given is biochemical. Conditions: membranes of CHO cells stably expressing human APJ receptor, read-out: Activity hAPJ SPA EC50 IP. The gist of the method: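 Agonist EC50 values come from non-linear regression of mean data from several independent runs. Membranes of CHO cells stably expressing human APJ were incubated 90 min at room temperature with [35S]GTPγS in buffer with optimized GDP, MgCl2 and NaCl, then read on a microplate imager.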
human APJ receptor, sequence (P35414 whole entry): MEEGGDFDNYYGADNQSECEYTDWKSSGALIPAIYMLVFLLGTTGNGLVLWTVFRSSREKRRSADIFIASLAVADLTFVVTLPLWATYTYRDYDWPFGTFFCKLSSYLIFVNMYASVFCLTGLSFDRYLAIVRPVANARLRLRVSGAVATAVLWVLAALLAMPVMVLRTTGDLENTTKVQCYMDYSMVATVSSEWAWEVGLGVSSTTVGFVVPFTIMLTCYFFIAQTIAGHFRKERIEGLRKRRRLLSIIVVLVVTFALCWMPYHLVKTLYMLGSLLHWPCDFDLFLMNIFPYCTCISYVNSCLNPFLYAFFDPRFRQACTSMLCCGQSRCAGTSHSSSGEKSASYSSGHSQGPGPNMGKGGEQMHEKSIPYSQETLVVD
For orientation: GTPγS is a poorly hydrolysed GTP analogue; its binding reports G protein activation.
`COc1cccc(-c2nnc(NS(=O)(=O)[C@@H](C)[C@@H](OC(C)C)c3ncc(C)cn3)n2[C@@H](C)c2c(C)noc2C)n1` (racemic) [Example 316.0, (1S,2S)-N-(4-((R)-1-(3,5-dimethylisoxazol-4-yl)ethyl)-5-(6-methoxypyridin-2-yl)-4H-1,2,4-triazol-3-yl)-1-isopropoxy-1-(5-methylpyrimidin-2-yl)propane-2-sulfonamide or (1S,2S)-N-(4-((S)-1-(3,5-dimethylisoxazol-4-yl)ethyl)-5-(6-methoxypyridin-2-yl)-4H-1,2,4-triazol-3-yl)-1-isopropoxy-1-(5-methylpyrimidin-2-yl)propane-2-sulfonamide]: the EC50 is 21 nM. Consider `COc1cccc(-c2nnc(NS(=O)(=O)[C@@H](C)[C@H](OC)c3ncc(Cl)cn3)n2CC2CCOC2)n1` (single isomer, unassigned) [Example 285.0, (1R,2S)-1-(5-chloropyrimidin-2-yl)-1-methoxy-N-(5-(6-methoxypyridin-2-yl)-4-(((R)-tetrahydrofuran-3-yl)methyl)-4H-1,2,4-triazol-3-yl)propane-2-sulfonamide or (1R,2S)-1-(5-chloropyrimidin-2-yl)-1-methoxy-N-(5-(6-methoxypyridin-2-yl)-4-(((S)-tetrahydrofuran-3-yl)methyl)-4H-1,2,4-triazol-3-yl)propane-2-sulfonamide], for which the EC50 is 65 nM. As to `COc1cc(Cn2c(NS(=O)(=O)[C@@H](C)[C@H](C)c3ncc(Cl)cn3)nnc2-c2cccc(OC)n2)on1` [Example 198.0, (2S,3R)-3-(5-chloro-2-pyrimidinyl)-N-(4-((3-methoxy-1,2-oxazol-5-yl)methyl)-5-(6-methoxy-2-pyridinyl)-4H-1,2,4-triazol-3-yl)-2-butanesulfonamide], the EC50 stood at 24 nM. As for `COCC1(n2c(NS(=O)(=O)[C@@H](C)[C@H](OC)c3ncc(Cl)cn3)nnc2-c2cccc(OC)n2)CCC1` [Example 50.0], the EC50 came to 0.46 nM. To `COCCn1c(NS(=O)(=O)[C@@H](C)[C@H](OC)c2ncc(Cl)cn2)nnc1-c1cccc(OC)n1` [Example 3.0, (1R,2S)-1-(5-chloro-2-pyrimidinyl)-1-methoxy-N-(4-(2-methoxyethyl)-5-(6-methoxy-2-pyridinyl)-4H-1,2,4-triazol-3-yl)-2-propanesulfonamide] belongs 2.8 nM. To `COc1cccc(-c2nnc(NS(=O)(=O)[C@@H](C)[C@H](C)c3ncc(Cl)cn3)n2Cc2ccon2)n1` [Example 260.0, (2S,3R)-3-(5-chloropyrimidin-2-yl)-N-(4-(isoxazol-3-ylmethyl)-5-(6-methoxypyridin-2-yl)-4H-1,2,4-triazol-3-yl)butane-2-sulfonamide] belongs 5.1 nM; to `COc1cccc(-c2nnc(NS(=O)(=O)[C@@H](C)[C@H](OC)c3ncc(Cl)cn3)n2C2CCCCC2)n1` [Example 184.0, (1R,2S)-1-(5-chloro-2-pyrimidinyl)-N-(4-cyclohexyl-5-(6-methoxy-2-pyridinyl)-4H-1,2,4-triazol-3-yl)-1-methoxy-2-propanesulfonamide], 7.3 nM.

As for `COCC(COC)n1c(NS(=O)(=O)[C@@H](C)[C@H](OC)c2ncc(Cl)cn2)nnc1-c1cccc(OC)n1` [Example 6.0, (1R,2S)-1-(5-chloro-2-pyrimidinyl)-1-methoxy-N-(4-(2-methoxy-1-(methoxymethyl)ethyl)-5-(6-methoxy-2-pyridinyl)-4H-1,2,4-triazol-3-yl)-2-propanesulfonamide], the EC50 was found to be 0.3 nM.

Take `COc1cccc(-c2nnc(NS(=O)(=O)[C@@H](C)[C@H](OC)c3ncc(Cl)cn3)n2[C@H](C)c2cccnc2)n1` (single isomer, unassigned) [Example 351.0, (1R,2S)-1-(5-chloropyrimidin-2-yl)-1-methoxy-N-(5-(6-methoxypyridin-2-yl)-4-((R)-1-(pyridin-3-yl)ethyl)-4H-1,2,4-triazol-3-yl)propane-2-sulfonamide or (1R,2S)-1-(5-chloropyrimidin-2-yl)-1-methoxy-N-(5-(6-methoxypyridin-2-yl)-4-((S)-1-(pyridin-3-yl)ethyl)-4H-1,2,4-triazol-3-yl)propane-2-sulfonamide]: the EC50 was determined as 0.36 nM. To `COc1cccc(-c2nnc(NS(=O)(=O)[C@@H](C)[C@H](C)c3ncc(Cl)cn3)n2[C@H](C)c2cnn(C)c2)n1` (racemic) [Example 297.0, (2S,3R)-3-(5-chloropyrimidin-2-yl)-N-(5-(6-methoxypyridin-2-yl)-4-((R)-1-(1-methyl-1H-pyrazol-4-yl)ethyl)-4H-1,2,4-triazol-3-yl)butane-2-sulfonamide or (2S,3R)-3-(5-chloropyrimidin-2-yl)-N-(5-(6-methoxypyridin-2-yl)-4-((S)-1-(1-methyl-1H-pyrazol-4-yl)ethyl)-4H-1,2,4-triazol-3-yl)butane-2-sulfonamide] belongs 4.3 nM; to `CC[C@H]([C@@H]1CCCCO1)n1c(NS(=O)(=O)[C@@H](C)[C@H](OC)c2ncc(Cl)cn2)nnc1-c1cccc(OC)n1` (single isomer, unassigned) [Example 327.0], 0.11 nM; to `COc1cccc(-c2nnc(NS(=O)(=O)[C@@H](C)[C@H](OC)c3cnc(C)cn3)n2Cc2cnoc2)n1` [Example 188.0, (1R,2S)-N-(4-(isoxazol-4-ylmethyl)-5-(6-methoxypyridin-2-yl)-4H-1,2,4-triazol-3-yl)-1-methoxy-1-(5-methylpyrazin-2-yl)propane-2-sulfonamide], 1400 nM. To `CC[C@@H](c1conc1C)n1c(NS(=O)(=O)[C@@H](C)[C@H](C)c2ncc(Cl)cn2)nnc1-c1cccc(OC)n1` (single isomer, unassigned) [Example 231.0, (2S,3R)-3-(5-chloro-2-pyrimidinyl)-N-(5-(6-methoxy-2-pyridinyl)-4-((1S)-1-(3-methyl-1,2-oxazol-4-yl)propyl)-4H-1,2,4-triazol-3-yl)-2-butanesulfonamide or (2S,3R)-3-(5-chloro-2-pyrimidinyl)-N-(5-(6-methoxy-2-pyridinyl)-4-((1R)-1-(3-methyl-1,2-oxazol-4-yl)propyl)-4H-1,2,4-triazol-3-yl)-2-butanesulfonamide] belongs 21 nM; to `CC[C@H](c1c(C)noc1C)n1c(NS(=O)(=O)[C@@H](C)[C@H](OC)c2cnc(C)cn2)nnc1-c1cccc(OC)n1` (mixture of isomers) [Example 208.0, (1R,2S)-N-(4-((1R)-1-(3,5-dimethyl-1,2-oxazol-4-yl)propyl)-5-(6-methoxy-2-pyridinyl)-4H-1,2,4-triazol-3-yl)-1-methoxy-1-(5-methyl-2-pyrazinyl)-2-propanesulfonamide and (1R,2S)-N-(4-((1S)-1-(3,5-dimethyl-1,2-oxazol-4-yl)propyl)-5-(6-methoxy-2-pyridinyl)-4H-1,2,4-triazol-3-yl)-1-methoxy-1-(5-methyl-2-pyrazinyl)-2-propanesulfonamide], 42 nM; to `COc1cccc(-c2nnc(NS(=O)(=O)[C@@H](C)[C@H](OC)c3ncc(Cl)cn3)n2Cc2ccon2)n1` [Example 76.0], 3.3 nM. To `CO[C@H](c1ncc(Cl)cn1)[C@H](C)S(=O)(=O)Nc1nnc(-c2cncc(C)c2)n1C1CC1` [Example 149.0, (1R,2S)-1-(5-Chloropyrimidin-2-yl)-N-(4-cyclopropyl-5-(5-methylpyridin-3-yl)-4H-1,2,4-triazol-3-yl)-1-methoxypropane-2-sulfonamide] belongs 36 nM. For `COc1cccc(-c2nnc(NS(=O)(=O)[C@@H](C)[C@H](OC)c3ncc(Cl)cn3)n2CC[S@+](C)[O-])n1` (single isomer, unassigned) [Example 95.0], the EC50 is 26 nM. To `Cc1cnc([C@H](OC(C)C)[C@H](C)S(=O)(=O)Nc2nnc(-c3cncc(C)c3)n2C2(C)CC2)nc1` [Example 58.0] belongs 42 nM; to `COc1cccc(-c2nnc(NS(=O)(=O)[C@@H](C)[C@H](OC)c3ncc(Cl)cn3)n2CC2CCOCC2)n1` [Example 302.0, (1R,2S)-1-(5-chloropyrimidin-2-yl)-1-methoxy-N-(5-(6-methoxypyridin-2-yl)-4-((tetrahydro-2H-pyran-4-yl)methyl)-4H-1,2,4-triazol-3-yl)propane-2-sulfonamide], 53 nM; to `COCC1(n2c(NS(=O)(=O)[C@@H](C)[C@H](OC)c3ncc(Cl)cn3)nnc2-c2ccccn2)CCC1` [Example 51.0], 1.8 nM. To `COc1cccc(-c2nnc(NS(=O)(=O)[C@@H](C)[C@H](OC)c3ncc(Cl)cn3)n2C[C@H]2CCC(C)(C)O2)n1` (single isomer, unassigned) [Example 290.0, (1R,2S)-1-(5-chloropyrimidin-2-yl)-N-(4-(((R)-5,5-dimethyltetrahydrofuran-2-yl)methyl)-5-(6-methoxypyridin-2-yl)-4H-1,2,4-triazol-3-yl)-1-methoxypropane-2-sulfonamide or (1R,2S)-1-(5-chloropyrimidin-2-yl)-N-(4-(((S)-5,5-dimethyltetrahydrofuran-2-yl)methyl)-5-(6-methoxypyridin-2-yl)-4H-1,2,4-triazol-3-yl)-1-methoxypropane-2-sulfonamide] belongs 15 nM. To `COc1cccc(-c2nnc(NS(=O)(=O)[C@@H](C)[C@H](OC)c3ncc(Cl)cn3)n2[C@@H]2CCC23CCC3)n1` (single isomer, unassigned) [Example 93.0] belongs 2.3 nM; to `COC[C@@H](C)n1c(NS(=O)(=O)[C@@H](C)[C@H](C)c2ncc(Cl)cn2)nnc1-c1cccnc1` (single isomer, unassigned) [Example 53.0], 30 nM. For the molecule `COc1cccc(-c2nnc(NS(=O)(=O)[C@@H](C)[C@H](OC)c3ncc(Cl)cn3)n2CCS(C)(=O)=O)n1` [Example 57.0, (1R,2S)-1-(5-Chloro-2-pyrimidinyl)-1-methoxy-N-(5-(6-methoxy-2-pyridinyl)-4-(2-(methylsulfonyl)ethyl)-4H-1,2,4-triazol-3-yl)-2-propanesulfonamide], the EC50 is 211 nM. Regarding `COc1cccc(-c2nnc(NS(=O)(=O)[C@@H](C)[C@@H](OC(C)C)c3ncc(C)cn3)n2[C@@H](C)[C@H]2CCCO2)n1` (single isomer, unassigned) [Example 274.0], the EC50 is 2.2 nM.

What is called EC50 is the midpoint of the concentration-response curve.
